Test results from US20260285888A1, “HETEROCYCLIC COMPOUND AND USE THEREOF” (OTSUKA PHARMACEUTICAL CO., LTD., priority 2023, published 2026).

Assay: in vitro
Assay type: cell-based, human
Conditions: human, differentiated hl-60 cells, 300 μmol/L, about 24 hours, PMA-differentiated HL-60 cells, LDH; no-treatment 0%, cell lysis buffer 100%; read-out: cytotoxicity (%) Evaluation compound results
Experimental: An HL-60 cell line (human acute promyelocytic leukemia cells) was successively cultured in RPMI 1640 containing 20% fetal bovine serum (FBS) at 37° C. in 95% atmosphere/5% CO2. Before evaluation, the cells were pre-cultured for about 72 hours in the presence of 10 nM phorbol 12-myristate 13-acetate (PMA) to induce macrophage-like differentiation.
Evaluation compounds were dissolved in DMSO to obtain 30 mmol/L solutions (or suspensions). Each DMSO solution was diluted 100-fold with RPMI 1640 containing 2% FBS (final concentration of the compound: 300 μmol/L) to obtain a treatment solution. The culture supernatant of the differentiated HL-60 cells was removed, and each treatment solution was added and cultured for about 24 hours, followed by cytotoxicity evaluation.
The activity of lactate dehydrogenase (LDH) was measured in the treatment solutions exposed to the cells for about 24 hours by using a commercial kit (Cytotoxicity LDH Assay Kit-WST, Dojindo Laboratories) and a plate reader (Tecan Infinite M1000). The obtained measurement values were used to calculate cytotoxicity (%) as comparison values for each evaluation compound-treated group, with the no-treatment group taken as 0% and the cell lysis buffer-treated group taken as 100%. The test was conducted in triplicate in three wells each, and the average values were used as adopted values.

Row | Structure (SMILES) | cytotoxicity at 24 h, 300 µM
1 | COCC(=O)OCOP(=O)([O-])OC[N+]1(CCCCOc2ccc3ccc(=O)[nH]c3c2)CCN(c2cccc3sccc23)CC1 [EX 30, (4-(benzo[b]thiophen-4-yl)-1-(4-((2-oxo-1,2-dihydroquinolin-7-yl)oxy)butyl)piperazin-1-ium-1-yl)methyl ((2-methoxyacetoxy)methyl) phosphate] | 14%
2 | CCOCC(=O)OCOP(=O)([O-])OC[N+]1(CCCCOc2ccc3ccc(=O)[nH]c3c2)CCN(c2cccc3sccc23)CC1 [EX 31, (4-(benzo[b]thiophen-4-yl)-1-(4-((2-oxo-1,2-dihydroquinolin-7-yl)oxy)butyl)piperazin-1-ium-1-yl)methyl ((2-ethoxyacetoxy)methyl) phosphate] | -8%
3 | CC(C)=CCC/C(C)=C\COP(=O)([O-])OC[N+]1(CCCCOc2ccc3ccc(=O)[nH]c3c2)CCN(c2cccc3sccc23)CC1 [EX 38, (Z)-(4-(benzo[b]thiophen-4-yl)-1-(4-((2-oxo-1,2-dihydroquinolin-7-yl)oxy)butyl)piperazin-1-ium-1-yl)methyl (3,7-dimethylocta-2,6-dien-1-yl) phosphate] | 0%
4 | CC(C)=CCC/C(C)=C/COP(=O)([O-])OC[N+]1(CCCCOc2ccc3ccc(=O)[nH]c3c2)CCN(c2cccc3sccc23)CC1 [EX 39, (E)-(4-(benzo[b]thiophen-4-yl)-1-(4-((2-oxo-1,2-dihydroquinolin-7-yl)oxy)butyl)piperazin-1-ium-1-yl)methyl (3,7-dimethylocta-2,6-dien-1-yl) phosphate] | 2%
5 | CCOC(=O)CCCCCOP(=O)([O-])OC[N+]1(CCCCOc2ccc3ccc(=O)[nH]c3c2)CCN(c2cccc3sccc23)CC1 [EX 61, (4-(benzo[b]thiophen-4-yl)-1-(4-((2-oxo-1,2-dihydroquinolin-7-yl)oxy)butyl)piperazin-1-ium-1-yl)methyl (6-ethoxy-6-oxohexyl) phosphate] | 5%
6 | O=C(O)CCOP(=O)([O-])OC[N+]1(CCCCOc2ccc3ccc(=O)[nH]c3c2)CCN(c2cccc3sccc23)CC1 [EX 112, (4-(benzo[b]thiophen-4-yl)-1-(4-((2-oxo-1,2-dihydroquinolin-7-yl)oxy)butyl)piperazin-1-ium-1-yl)methyl (2-carboxyethyl) phosphate] | -7%
7 | O=C(OCCCO)OCOP(=O)([O-])OC[N+]1(CCCCOc2ccc3ccc(=O)[nH]c3c2)CCN(c2cccc3sccc23)CC1 [EX 131, (4-(benzo[b]thiophen-4-yl)-1-(4-((2-oxo-1,2-dihydroquinolin-7-yl)oxy)butyl)piperazin-1-ium-1-yl)methyl ((((3-hydroxypropoxy)carbonyl)oxy)methyl) phosphate] | 10%
8 | CCC(=O)OP(=O)([O-])OC[N+]1(CCCCOc2ccc3ccc(=O)[nH]c3c2)CCN(c2cccc3sccc23)CC1 [EX 148, (4-(benzothiophen-4-yl)-1-(4-((2-oxo-1H-quinolin-7-yl)oxy)butyl)piperazin-1-ium-1-yl)methyl propanoyl phosphate] | -5%
9 | CC(C)C(=O)OP(=O)([O-])OC[N+]1(CCCCOc2ccc3ccc(=O)[nH]c3c2)CCN(c2cccc3sccc23)CC1 [EX 149, (4-(benzothiophen-4-yl)-1-(4-((2-oxo-1H-quinolin-7-yl)oxy)butyl)piperazin-1-ium-1-yl)methyl 2-methylpropanoyl phosphate] | -3%
10 | O=C(OC[N+]1(CCCCOc2ccc3ccc(=O)[nH]c3c2)CCN(c2cccc3sccc23)CC1)N1CCCCC1 [REX 4, 4-(benzo[b]thiophen-4-yl)-1-(4-((2-oxo-1,2-dihydroquinolin-7-yl)oxy)butyl)-1-(((piperidine-1-carbonyl)oxy)methyl)piperazin-1-ium iodide, reference compound] | 83%

Assay: Study for confirmation of conversion to brexpiprazole in a buffer (stability of the evaluation compounds)
Assay type: physicochemical
Conditions: Tris-hydrochloric acid buffer pH 7.5, 37° C., 60 minutes, 1 μmol/L
Experimental: The conversion from the evaluation compounds to brexpiprazole in a buffer (i.e., the stability of the evaluation compounds) was evaluated.
The Example 1 compound was dissolved in acetonitrile/water (1:1, v/v) to 10 mmol/L and further diluted with acetonitrile/water (1:1, v/v) to 100 μmol/L for use.
The other Example compounds and the Reference Example 5 compound to Reference Example 7 compound were each dissolved in DMSO to 10 mmol/L and further diluted with acetonitrile to 100 μmol/L for use, except for the following compounds.
The compounds of Examples 52, 95, 96, 117, and 130 (EX 52, EX 95, EX 96, EX 117, and EX 130) were dissolved in acetonitrile/water (8:2, v/v) to 10 mmol/L and further diluted with acetonitrile to 100 μmol/L for use.
The compound of Example 97 (EX 97) was dissolved in acetonitrile/water (8:2, v/v) to 10 mmol/L and further diluted with acetonitrile/water (8:2, v/v) to 100 μmol/L for use.
The compounds of Examples 15 and 116 (EX 15 and EX 116) were dissolved in DMSO to 1 mmol/L and further diluted with acetonitrile to 100 μmol/L for use.
The reaction was conducted by preparing each reaction solution such that the final concentration of each component was as follows. The test was conducted in duplicate.
For the compounds of Examples 1 to 8, 10 to 19, 26 to 27, 37, 50, 87 to 89, 91, 116, 121, 123, 150, and 151 (EX 1 to EX 8, EX 10 to EX 19, EX 26 to EX 27, EX 37, EX 50, EX 87 to EX 89, EX 91, EX 116, EX 121, EX 123, EX 150, and EX 151), and the compounds of Reference Examples 5 to 7 (REX 5 to REX 7), the reaction solution without the evaluation compound (198 μl) was pre-incubated at 37° C. for 3 minutes, and then each of the evaluation compound solutions (2 μl) was added and stirred; thereafter, the reaction was started at 37° C. At 0 minutes or 60 minutes after the start of the reaction, the reaction was stopped by adding and stirring a reaction stop solution (1000 μl) composed of acetonitrile/isopropanol (4:1, v/v) containing internal standard substances. However, the 0-minute reaction sample (198 μl) was prepared by adding the evaluation compound (2 μl) after adding the reaction stop solution (1000 μl). The samples after stopping the reaction were used as the measurement samples. Calibration curve samples with the same composition were prepared (final concentrations of the evaluation compounds and brexpiprazole: 0.01, 0.1, and 1 μmol/L, with the proviso that for the evaluation compounds only, the 0-minute reaction samples were also used as calibration curve samples for 1 μmol/L).
For the compounds of Examples 24 to 25, 28 to 29, 32 to 36, 40 to 49, 51 to 60, 62 to 64, 66 to 77, 80 to 86, 90, 92 to 111, 113, 115, 117 to 120, 122, 124 to 130, 132 to 147, and 152 to 160 (EX 24 to EX 25, EX 28 to EX 29, EX 32 to EX 36, EX 40 to EX 49, EX 51 to EX 60, EX 62 to EX 64, EX 66 to EX 77, EX 80 to EX 86, EX 90, EX 92 to EX 111, EX 113, EX 115, EX 117 to EX 120, EX 122, EX 124 to EX 130, EX 132 to EX 147, and EX 152 to EX 160), the reaction solution without the evaluation compound (148.5 μl) was pre-incubated at 37° C. for 3 minutes, and then each of the evaluation compound solutions (1.5 μl) was added and stirred; thereafter, the reaction was started at 37° C. At 0 minutes or 60 minutes after the start of the reaction, the reaction was stopped by adding and stirring a reaction stop solution (600 μl) composed of acetonitrile/isopropanol (4:1, v/v) containing internal standard substances. However, the 0-minute reaction sample (148.5 μl) was prepared by adding the evaluation compound (1.5 μl) after adding the reaction stop solution (600 μl). The samples after stopping the reaction were used as the measurement samples. Calibration curve samples with the same composition were prepared (final concentrations of the evaluation compounds and brexpiprazole: 0.01, 0.1, and 1 μmol/L, with the proviso that for the evaluation compounds only, the 0-minute reaction samples were also used as calibration curve samples for 1 μmol/L). […]

Row | stability in the buffer / conversion to brexpiprazole (in words) | Structure (SMILES)
11 | clearly degraded to brexpiprazole | CCC(=O)OC[N+]1(CCCCOc2ccc3ccc(=O)[nH]c3c2)CCN(c2cccc3sccc23)CC1 [Reference Example 5, reference compound]
12 | clearly degraded to brexpiprazole | CCCCCC(=O)OC[N+]1(CCCCOc2ccc3ccc(=O)[nH]c3c2)CCN(c2cccc3sccc23)CC1 [Reference Example 6, reference compound]
13 | clearly degraded to brexpiprazole | CCCCCCOC(=O)OC[N+]1(CCCCOc2ccc3ccc(=O)[nH]c3c2)CCN(c2cccc3sccc23)CC1 [Reference Example 7, reference compound]

Same assay, conditions: in buffer; 60-minute reaction sample; average of duplicate

Row | Concentration of brexpiprazole formed | Structure (SMILES)
14 | 260 nM | CCC(=O)OC[N+]1(CCCCOc2ccc3ccc(=O)[nH]c3c2)CCN(c2cccc3sccc23)CC1.[I-] [REX 5, 4-(Benzo[b]thiophen-4-yl)-1-(4-((2-oxo-1,2-dihydroquinolin-7-yl)oxy)butyl)-1-((propionyloxy)methyl)piperazin-1-ium iodide, reference compound]
15 | 210 nM | CCCCCC(=O)OC[N+]1(CCCCOc2ccc3ccc(=O)[nH]c3c2)CCN(c2cccc3sccc23)CC1.[I-] [REX 6, 4-(Benzo[b]thiophen-4-yl)-1-((hexanoyloxy)methyl)-1-(4-((2-oxo-1,2-dihydroquinolin-7-yl)oxy)butyl)piperazin-1-ium iodide, reference compound]
16 | 240 nM | CCCCCCOC(=O)OC[N+]1(CCCCOc2ccc3ccc(=O)[nH]c3c2)CCN(c2cccc3sccc23)CC1.[I-] [REX 7, 4-(Benzo[b]thiophen-4-yl)-1-((((hexyloxy)carbonyl)oxy)methyl)-1-(4-((2-oxo-1,2-dihydroquinolin-7-yl)oxy)butyl)piperazin-1-ium iodide, reference compound]

Same assay, conditions: in buffer; decrease in 60-minute vs 0-minute reaction sample; average of duplicate

Row | Concentration of evaluation compound decreased | Structure (SMILES)
17 | 200 nM | CCC(=O)OC[N+]1(CCCCOc2ccc3ccc(=O)[nH]c3c2)CCN(c2cccc3sccc23)CC1.[I-] [REX 5, 4-(Benzo[b]thiophen-4-yl)-1-(4-((2-oxo-1,2-dihydroquinolin-7-yl)oxy)butyl)-1-((propionyloxy)methyl)piperazin-1-ium iodide, reference compound]
18 | 220 nM | CCCCCC(=O)OC[N+]1(CCCCOc2ccc3ccc(=O)[nH]c3c2)CCN(c2cccc3sccc23)CC1.[I-] [REX 6, 4-(Benzo[b]thiophen-4-yl)-1-((hexanoyloxy)methyl)-1-(4-((2-oxo-1,2-dihydroquinolin-7-yl)oxy)butyl)piperazin-1-ium iodide, reference compound]
19 | 270 nM | CCCCCCOC(=O)OC[N+]1(CCCCOc2ccc3ccc(=O)[nH]c3c2)CCN(c2cccc3sccc23)CC1.[I-] [REX 7, 4-(Benzo[b]thiophen-4-yl)-1-((((hexyloxy)carbonyl)oxy)methyl)-1-(4-((2-oxo-1,2-dihydroquinolin-7-yl)oxy)butyl)piperazin-1-ium iodide, reference compound]
